According to patent publication US20060099267A1, “High-dosage extended-release formulation of gepirone” (Fabre-Kramer Pharmaceuticals, Inc., priority 2004, published 2006):
Structures can show the parent of a compound that is named as a salt.

Tests used:
[1] = in vivo; cited from earlier work
[2] = system: presynaptic α-2-adrenoceptor; conditions: cited from earlier work
5-HT1A receptors = molecular target: T1, 5-HT1A receptors (Homo sapiens, UniProt P08908); conditions: cited from earlier work
T1 sequence (P08908 1-422): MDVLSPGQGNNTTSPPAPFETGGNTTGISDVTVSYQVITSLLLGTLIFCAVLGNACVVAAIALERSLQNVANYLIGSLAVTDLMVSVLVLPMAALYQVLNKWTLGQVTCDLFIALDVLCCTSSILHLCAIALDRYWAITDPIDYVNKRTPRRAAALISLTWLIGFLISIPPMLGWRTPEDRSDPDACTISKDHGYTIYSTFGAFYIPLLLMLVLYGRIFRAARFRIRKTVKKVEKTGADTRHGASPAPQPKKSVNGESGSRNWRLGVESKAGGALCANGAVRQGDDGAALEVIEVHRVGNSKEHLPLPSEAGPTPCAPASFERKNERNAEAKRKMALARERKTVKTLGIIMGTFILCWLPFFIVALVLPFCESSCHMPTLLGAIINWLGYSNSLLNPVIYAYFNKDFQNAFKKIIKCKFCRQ

[3] = system: post-synaptic receptors in the hippocampus; conditions: cited from earlier work
[4] = Open label, randomized, four-way crossover, single dose bioequivalence and pharmacokinetic study of extended-release gepirone tablets; format: in vivo, human; conditions: 40-80 mg dose range
Description: Heretofore, efficacy and pharmacokinetic data for extended release gepirone tablets have been primarily obtained by administering one or multiple 20-mg extended-release gepirone tablets (similar to that described in the Preparation Example above).
To this end, an open label, randomized, four-way crossover, single dose study design was used with a washout phase of one week between different treatments. During each study period, the subjects were hospitalized from the afternoon before until 36 hours after gepirone administration. Following discharge, blood sample collections were taken at 48, 60, and 72 hours post-administration. […]
To determine the bioequivalence of one 80-mg extended-release gepirone tablet versus four 20-mg extended-release gepirone tablets the following pharmacokinetic parameter were calculated for each subject and treatment: • tmax (TMAX) • The actual time of occurrence of Cmax. • Cmax (CMAX) • The measured maximum concentration in plasma after single dosing. • dn-Cmax (DCMAX) • The dose-normalized Cmax was calculated as Cmax/Dose. • λZ (LZ) and t1/2 (THALF) • The slope (β) of the terminal log-linear phase of the concentration-versus-time curve was determined by linear regression. […] The terminal elimination rate constant (λZ) was defined as −β from which the elimination half-life (t1/2) was calculated as […]. […]

[5] = immediate-release formulations; cited from earlier work
[6] = immediate-release formulations; cited from earlier work; remark: listed apart in the source

| SMILES | antidepressant-like characteristics in pre-clinical tests [1] | activity at presynaptic α-2-adrenoceptor [2] | affinity for 5-HT1A receptors (5-HT1A receptors) | agonism at post-synaptic receptors in the hippocampus [3] | dose proportionality [4] | time to maximum drug concentration of gepirone in the bloodstream (Tmax) [5] | T50 (time until 50% of the drug has been released under controlled in vitro conditions) [6] |
| --- | --- | --- | --- | --- | --- | --- | --- |
| c1cnc(N2CCNCC2)nc1 [1-PP, 1-(2-pyrimidinyl)piperazine] | did not exhibit antidepressant-like characteristics | antagonist |  |  |  |  |  |
| CC1(C)CC(=O)N(CCCCN2CCN(c3ncccn3)CC2)C(=O)C1O (centres unmarked) [3′-OH gepirone] |  |  | significant affinity | full agonism |  |  |  |
| CC1(C)CC(=O)N(CCCCN2CCN(c3ncccn3)CC2)C(=O)C1 [gepirone, 4,4-dimethyl-1-[4-[4-(2-pyrimidinyl)-1-piperazinyl]-butyl]-2,6-piperidinedione hydrochloride] |  |  |  | partial agonist | dose proportionality | about 1 hour | 2.5 to 3 h |
